Type in all cases: cell-based
One test deals with Alternaria solani. Kind of test: Microtest against early blight caused by Alternaria solani (Alteso). The note with it: solo product; for inhibition of growth at 4e-06 ppm: 0.000004 ppm; for inhibition of growth at 6.3e-05 ppm: 0.000063 ppm.
Another test relates to Phytophthora infestans. Kind of test: microbe, parasite or virus in culture. The note with it: for Observed efficacy: solo product.
The subject of a further test is Septoria tritici. Put plainly: Microtest against leaf blotch on wheat caused by Septoria tritici (Septtr). The note with it: solo product; for inhibition of growth at 1.6e-05 ppm: 0.000016 ppm.
Another test relates to Pyricularia oryzae. Kind of test: microbe, parasite or virus in culture. The note with it: for Observed efficacy: solo product.
Another test concerns Botrytis cinerea. Kind of test: Microtiterplate test against the grey mold Botrytis cinerea (Botrci). The following applies: solo product.
The test system of a further test is Leptosphaeria nodorum. Kind of test: Microtest against wheat leaf spots caused by Leptosphaeria nodorum (Leptno). The following applies: solo product.
Setting [1] is: Alternaria solani, 168 h, 0.004 ppm, read-out: Observed efficacy.
Setting [2] is: Phytophthora infestans, 168 h, read-out: Observed efficacy.
Where [3] appears, read: Zymoseptoria tritici, 168 h, 0.001 ppm, read-out: Observed efficacy.
Setting [4] is: Zymoseptoria tritici, 168 h, […], read-out: Observed efficacy.
The mark [5] stands for this setting: Botrytis cinerea, 168 h, 4 ppm, read-out: Observed efficacy.
Setting [6] is: Botrytis cinerea, 168 h, 16 ppm, read-out: Observed efficacy.
Where [7] appears, read: Pyricularia oryzae, 168 h, read-out: Observed efficacy.
Where [8] appears, read: Alternaria solani, 168 h, read-out: Observed efficacy.
The mark [9] stands for this setting: Zymoseptoria tritici, 168 h, read-out: Observed efficacy.
Where [10] appears, read: Botrytis cinerea, 168 h, 0.063 ppm, read-out: Observed efficacy.
[11] abbreviates: Botrytis cinerea, 168 h, 0.25 ppm, read-out: Observed efficacy.
Where [12] appears, read: Alternaria solani, 168 h, 0.25 ppm, read-out: Observed efficacy.
The mark [13] stands for this setting: Parastagonospora nodorum, 168 h, 1 ppm, read-out: Observed efficacy.
The mark [14] stands for this setting: Alternaria solani, 168 h, 0.063 ppm, read-out: Observed efficacy.
The mark [15] stands for this setting: Botrytis cinerea, 168 h, 1 ppm, read-out: Observed efficacy.

Read-outs that look alike come from different tables or passages of the source.

Turning to `CC1(C)CCC(Cc2ccc(Cl)cc2)C1(O)Cn1cncn1` (centres unmarked) [Metconazol], the Observed efficacy came out at 17 in the test on Alternaria solani (0.016 ppm), 2 in the test with Phytophthora infestans (0.004 ppm), 24 in the test on Septoria tritici (0.016 ppm) and 58 in the test on Pyricularia oryzae (1 ppm).
In the case of `COC(=O)N(OC)c1ccccc1COc1ccn(-c2ccc(Cl)cc2)n1` [II-66, pyraclostrobin, reference compound], the inhibition of growth at 0.004 ppm in the test on Alternaria solani (setting [1]) is 8%; with Septoria tritici (Zymoseptoria tritici, 168 h, 0.004 ppm, read-out: Observed efficacy), 37%; in the test with Pyricularia oryzae (setting [7]), 59%. The inhibition of growth at 0.016 ppm in the test with Phytophthora infestans (setting [2]) is 9%. Besides, the inhibition of growth at 0.001 ppm with Septoria tritici (setting [3]) stood at 12%. Further, the inhibition of growth at 6.3e-05 ppm in the test with Septoria tritici (setting [4]) amounted to 7%. For the same compound, in the test on Botrytis cinerea (setting [5]), the inhibition of growth at 4 ppm came out at 29%. For the same compound, the inhibition of growth at 16 ppm with Botrytis cinerea (setting [6]) stood at 66%.
Regarding `C#CCC(O)(Cn1cncn1)c1ccc(Oc2ccc(Cl)cc2)cc1Cl` (centres unmarked) [I-25, 2-[2-chloro-4-(4-chlorophenoxy)phenyl]-1-(1,2,4-triazol-1-yl)pent-4-yn-2-ol], the inhibition of growth at 4e-06 ppm worked out at 7% in the test on Alternaria solani (setting [8]) and 14% in the test with Leptosphaeria nodorum (Parastagonospora nodorum, 168 h, 0.000004 ppm, read-out: Observed efficacy). Also, the inhibition of growth at 6.3e-05 ppm is 1% with Alternaria solani (setting [8]) and 12% in the test on Septoria tritici (setting [4]). In the test on Phytophthora infestans (setting [2]), the inhibition of growth at 16 ppm amounted to 0%. In addition, the inhibition of growth at 1.6e-05 ppm stood at 12% with Septoria tritici (setting [9]) and 22% in the test on Leptosphaeria nodorum (Parastagonospora nodorum, 168 h, 0.000016 ppm, read-out: Observed efficacy). In addition, the inhibition of growth at 0.001 ppm with Septoria tritici (setting [3]) was 37%. The inhibition of growth at 0.004 ppm in the test with Botrytis cinerea (Botrytis cinerea, 168 h, 0.004 ppm, read-out: Observed efficacy) is 9%. The inhibition of growth at 0.016 ppm in the test on Botrytis cinerea (Botrytis cinerea, 168 h, 0.016 ppm, read-out: Observed efficacy) is 16%. Also, the inhibition of growth at […] worked out at 23% in the test with Botrytis cinerea (setting [10]) and 49% with Botrytis cinerea (setting [11]).
In the case of `Cc1ccc(-c2c(Cl)nc(C#N)n2S(=O)(=O)N(C)C)cc1` [II-12, cyazofamid, reference compound], the inhibition of growth at 4 ppm with Alternaria solani (setting [8]) is 14%; in the test on Pyricularia oryzae (setting [7]), 9%. Further, the inhibition of growth at 16 ppm was determined as 35% in the test on Alternaria solani (Alternaria solani, 168 h, 16 ppm, read-out: Observed efficacy); 40% in the test with Septoria tritici (Zymoseptoria tritici, 168 h, 16 ppm, read-out: Observed efficacy); 24% with Botrytis cinerea (setting [6]). In the test on Phytophthora infestans (setting [2]), the inhibition of growth at 0.004 ppm is 8%.
In the case of `C[N+]1(C)CCCCC1.[Cl-]` [Mepiquat-cl], the Observed efficacy in the test on Alternaria solani (16 ppm) is recorded as 10; in the test on Alternaria solani (63 ppm), 16; in the test on Phytophthora infestans (4 ppm), 5; in the test on Septoria tritici (63 ppm) it was 16; in the test with Botrytis cinerea (16 ppm), 11; in the test with Pyricularia oryzae (1 ppm), 2. The Observed efficacy turned out to be 1 in the test on Pyricularia oryzae (4 ppm), 4 in the test with Pyricularia oryzae (16 ppm) and 28 in the test with Leptosphaeria nodorum (63 ppm).
Turning to `CO/C=C(/C(=O)OC)c1ccccc1Oc1cc(Oc2ccccc2C#N)ncn1` [II-3, azoxystrobin, reference compound], the Observed efficacy in the test with Alternaria solani (0.004 ppm) turned out to be 6; in the test on Alternaria solani (0.016 ppm), 14; with Phytophthora infestans (0.016 ppm), 2; in the test with Septoria tritici (0.001 ppm), 12; with Botrytis cinerea (4 ppm) it was 14; in the test with Botrytis cinerea (16 ppm), 23. Moreover, the Observed efficacy with Pyricularia oryzae (0.004 ppm) is 1.
For the compound `COCC(O)(Cn1cncn1)c1ccc(Oc2ccc(F)cc2)cc1Cl` (centres unmarked) [I-27, 2-[2-chloro-4-(4-fluorophenoxy)phenyl]-1-methoxy-3-(1,2,4-triazol-1-yl)propan-2-ol], the inhibition of growth at […] amounted to 4% with Alternaria solani (Alternaria solani, 168 h, 0.00025 ppm, read-out: Observed efficacy); 22% with Botrytis cinerea (setting [10]); 8% with Leptosphaeria nodorum (Parastagonospora nodorum, 168 h, 0.00025 ppm, read-out: Observed efficacy). Further, the inhibition of growth at 0.001 ppm in the test on Alternaria solani (Alternaria solani, 168 h, 0.001 ppm, read-out: Observed efficacy) was found to be 0%; in the test on Septoria tritici (setting [3]), 9%; with Leptosphaeria nodorum (Parastagonospora nodorum, 168 h, 0.001 ppm, read-out: Observed efficacy), 6%. Further, the inhibition of growth at 0.004 ppm came to 0% in the test on Alternaria solani (setting [1]) and 15% in the test with Leptosphaeria nodorum (Parastagonospora nodorum, 168 h, 0.004 ppm, read-out: Observed efficacy). Further, the inhibition of growth at 0.016 ppm in the test on Alternaria solani (Alternaria solani, 168 h, 0.016 ppm, read-out: Observed efficacy) was determined as 12%; with Leptosphaeria nodorum (Parastagonospora nodorum, 168 h, 0.016 ppm, read-out: Observed efficacy), 24%. The inhibition of growth at 63 ppm in the test with Phytophthora infestans (setting [2]) amounted to 31%. Besides, the inhibition of growth at 1.6e-05 ppm in the test on Septoria tritici (setting [9]) was 7%. The inhibition of growth at 6.3e-05 ppm in the test on Septoria tritici (setting [4]) was 6%. Besides, in the test on Pyricularia oryzae (setting [7]), the inhibition of growth at 1 ppm is 29%.
Consider `OC(Cc1ccccc1Cl)(Cn1nc[nH]c1=S)C1(Cl)CC1` (centres unmarked) [Prothioconazol], for which the Observed efficacy with Alternaria solani (1 ppm) is recorded as 66; in the test with Phytophthora infestans (1 ppm), 4; in the test with Phytophthora infestans (4 ppm), 12; in the test on Phytophthora infestans (16 ppm) it was 35; in the test on Septoria tritici (0.016 ppm), 17; in the test on Botrytis cinerea (1 ppm), 36. Besides, the Observed efficacy was determined as 72 with Botrytis cinerea (4 ppm), 13 in the test on Pyricularia oryzae (1 ppm), 23 with Pyricularia oryzae (4 ppm) and 43 in the test with Leptosphaeria nodorum (1 ppm).
On to `CN1COCN(Cc2cnc(Cl)s2)/C1=N\[N+](=O)[O-]` [II-42c, thiamethoxam, reference compound], for which the inhibition of growth at […] in the test on Alternaria solani (setting [12]) is 8%. In addition, the inhibition of growth at 1 ppm came out at 10% in the test on Alternaria solani (Alternaria solani, 168 h, 1 ppm, read-out: Observed efficacy); 1% with Phytophthora infestans (setting [2]); 57% in the test with Septoria tritici (Zymoseptoria tritici, 168 h, 1 ppm, read-out: Observed efficacy); 56% in the test with Pyricularia oryzae (setting [7]); 22% in the test on Leptosphaeria nodorum (setting [13]). Further, the inhibition of growth at 4 ppm was 51% with Alternaria solani (setting [8]); 2% in the test with Phytophthora infestans (setting [2]); 51% in the test on Leptosphaeria nodorum (Parastagonospora nodorum, 168 h, 4 ppm, read-out: Observed efficacy). In addition, the inhibition of growth at 63 ppm with Botrytis cinerea (Botrytis cinerea, 168 h, 63 ppm, read-out: Observed efficacy) was 8%. In the test on Pyricularia oryzae (setting [7]), the inhibition of growth at 0.016 ppm was determined as 3%.
Take `CCCC(Cn1cncn1)(OC)c1ccc(Oc2ccc(Cl)cc2)cc1Cl` (centres unmarked) [I-22, 1-[2-[2-chloro-4-(4-chlorophenoxy)phenyl]-2-methoxy-pentyl]-1,2,4-triazole]: the inhibition of growth at […] in the test with Alternaria solani (setting [14]) amounted to 25%; with Botrytis cinerea (setting [11]), 1%; in the test on Leptosphaeria nodorum (Parastagonospora nodorum, 168 h, 0.063 ppm, read-out: Observed efficacy) it was 25%. For the same compound, the inhibition of growth at 63 ppm in the test on Phytophthora infestans (setting [2]) worked out at 41%. The inhibition of growth at 0.001 ppm with Septoria tritici (setting [3]) was 10%. Moreover, in the test on Botrytis cinerea (setting [15]), the inhibition of growth at 1 ppm stood at 34%.
Regarding `CC(C)(C)C(O)(CCc1ccc(Cl)cc1)Cn1cncn1` (centres unmarked) [Tebuconazol], the Observed efficacy in the test on Alternaria solani (0.016 ppm) amounted to 8; in the test on Phytophthora infestans (0.016 ppm), 1; with Septoria tritici (0.016 ppm), 5; in the test with Botrytis cinerea (0.016 ppm) it was 9.
As for `N#Cc1c(Cl)c(Cl)c(Cl)c(C#N)c1Cl` [II-11, chlorothalonil, reference compound], the inhibition of growth at […] was determined as 4% with Alternaria solani (setting [14]) and 2% with Alternaria solani (setting [12]). Further, in the test on Phytophthora infestans (setting [2]), the inhibition of growth at 0.016 ppm was determined as 2%. Besides, the inhibition of growth at 1 ppm in the test on Botrytis cinerea (setting [15]) is 23%; with Leptosphaeria nodorum (setting [13]) it was 28%. The inhibition of growth at 4 ppm in the test with Botrytis cinerea (setting [5]) was found to be 41%.
Turning to `CC(O)(Cn1cncn1)c1ccc(Oc2ccc(Cl)cc2)cc1Cl` (centres unmarked) [I-17, 2-[2-chloro-4-(4-chlorophenoxy)phenyl]-1-(1,2,4-triazol-1-yl)propan-2-ol], the inhibition of growth at 4e-06 ppm is 6% in the test with Alternaria solani (setting [8]) and 12% in the test with Septoria tritici (Zymoseptoria tritici, 168 h, 0.000004 ppm, read-out: Observed efficacy). Besides, the inhibition of growth at 1.6e-05 ppm in the test on Alternaria solani (Alternaria solani, 168 h, 0.000016 ppm, read-out: Observed efficacy) was determined as 0%; with Septoria tritici (setting [9]) it was 19%. Also, the inhibition of growth at 6.3e-05 ppm with Alternaria solani (setting [8]) amounted to 0%; with Botrytis cinerea (Botrytis cinerea, 168 h, 0.000063 ppm, read-out: Observed efficacy), 9%. The inhibition of growth at 16 ppm in the test on Phytophthora infestans (setting [2]) came to 5%. Further, the inhibition of growth at 1e-06 ppm in the test on Septoria tritici (Zymoseptoria tritici, 168 h, 0.000001 ppm, read-out: Observed efficacy) is 14%. The inhibition of growth at 2.5e-07 ppm in the test with Septoria tritici (setting [4]) is 10%. Further, the inhibition of growth at […] with Botrytis cinerea (setting [10]) and with Botrytis cinerea (setting [11]) was 0% in each case. Besides, the inhibition of growth at 1 ppm in the test on Pyricularia oryzae (setting [7]) stood at 61%.
In the case of `CC(C)C1C2CCC1c1c(NC(=O)c3cn(C)nc3C(F)F)cccc12` (centres unmarked) [II-50, isopyrazam, reference compound], the Observed efficacy turned out to be 15 in the test with Alternaria solani (0.016 ppm), 23 with Phytophthora infestans (16 ppm), 6 with Botrytis cinerea (0.016 ppm) and 1 in the test with Pyricularia oryzae (0.004 ppm).

The values above are taken from patent US20150313225A1.
